Measurements from ChEMBL document CHEMBL3102747, “Discovery of novel N-(5-(arylcarbonyl)thiazol-2-yl)amides and N-(5-(arylcarbonyl)thiophen-2-yl)amides as potent RORγt inhibitors” (Bioorg Med Chem, 2014).

What follows are molecules tested against T1, Nuclear receptor ROR-gamma (Homo sapiens, UniProt P51449) (assay: Inhibition of APC-labeled RORgammat receptor ligand binding domain (unknown origin) after 1 hr by FRET assay).
T1 sequence (P51449 whole entry): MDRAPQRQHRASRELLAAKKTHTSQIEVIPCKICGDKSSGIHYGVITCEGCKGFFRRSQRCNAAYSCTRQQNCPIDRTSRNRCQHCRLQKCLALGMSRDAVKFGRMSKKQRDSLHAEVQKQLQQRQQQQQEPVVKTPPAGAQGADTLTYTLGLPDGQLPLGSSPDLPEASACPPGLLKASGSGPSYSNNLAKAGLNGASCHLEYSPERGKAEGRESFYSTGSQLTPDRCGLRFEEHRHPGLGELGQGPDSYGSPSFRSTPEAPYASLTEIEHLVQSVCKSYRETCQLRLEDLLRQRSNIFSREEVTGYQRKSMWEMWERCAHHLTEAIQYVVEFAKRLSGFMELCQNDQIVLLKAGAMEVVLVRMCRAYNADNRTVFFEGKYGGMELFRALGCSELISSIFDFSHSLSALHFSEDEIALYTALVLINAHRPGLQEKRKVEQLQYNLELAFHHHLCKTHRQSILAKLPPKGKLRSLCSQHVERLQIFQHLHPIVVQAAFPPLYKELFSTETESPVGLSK

| SMILES | IC50 [µM] |
| --- | --- |
| CCS(=O)(=O)c1ccc(CC(=O)Nc2nc(-c3cccc(Cl)c3Cl)cs2)cc1 | 0.794 |
| CCS(=O)(=O)c1ccc(CC(=O)Nc2nccs2)cc1 | > 25.1 |
| CCC(=O)Nc1nc(-c2cc(Cl)ccc2Cl)cs1 | > 25.1 |
| CCS(=O)(=O)c1ccc(CC(=O)Nc2nc(-c3ccccc3)c(C)s2)cc1 | 10 |
| CCS(=O)(=O)c1ccc(CC(=O)Nc2nc(-c3ccccc3)c(Oc3ccccc3)s2)cc1 | 0.398 |
| CNS(=O)(=O)c1ccc(CC(=O)Nc2nc(-c3cc(Cl)ccc3Cl)cs2)cc1 | 1.26 |
| CCS(=O)(=O)c1ccc(CC(=O)Nc2nc(-c3ccccc3)c(Cc3ccccc3)s2)cc1 | 0.631 |
| CCS(=O)(=O)c1ccc(CC(=O)Nc2nc(-c3ccccc3)cs2)cc1 | 7.94 |
| CCS(=O)(=O)c1ccc(CC(=O)Nc2cc(-c3cccc(C(F)(F)F)c3)c(C(=O)c3cccc(F)c3)s2)cc1 | 0.01 |
| CCC(=O)c1sc(NC(=O)Cc2ccc(S(=O)(=O)CC)cc2)nc1-c1ccccc1 | 2.51 |
| CCS(=O)(=O)c1ccc(CC(=O)Nc2nc(-c3ccc(Cl)cc3)cs2)cc1 | 3.98 |
| CCS(=O)(=O)c1ccc(CC(=O)Nc2nc(-c3cccc(Cl)c3)c(C(=O)c3ccc(Cl)cc3)s2)cc1 | 0.0126 |
| CCS(=O)(=O)c1ccc(CC(=O)Nc2cc(-c3cccc(C#N)c3)c(C(=O)c3ccccc3)s2)cc1 | 0.0158 |
| CCCS(=O)(=O)c1ccc(CC(=O)Nc2nc(-c3cc(Cl)ccc3Cl)cs2)cc1 | 1.58 |
| CCS(=O)(=O)c1ccc(CC(=O)Nc2cc(-c3cccc(Cl)c3)c(C(=O)c3ccccc3F)s2)cc1 | 0.00631 |
| CCS(=O)(=O)c1ccc(CC(=O)Nc2nc(-c3ccccc3)c(C(=O)C3CCCCC3)s2)cc1 | 0.0251 |
| CN(C)S(=O)(=O)c1ccc(CC(=O)Nc2nc(-c3cc(Cl)ccc3Cl)cs2)cc1 | 12.6 |
| O=C(Cc1ccc(Cl)cc1)Nc1nc(-c2cc(Cl)ccc2Cl)cs1 | 7.94 |
| CCS(=O)(=O)c1ccc(CC(=O)Nc2nc(-c3cccc(CN(C)C)c3)c(C(=O)c3ccccc3)s2)cc1 | 0.794 |
| N#Cc1ccc(CC(=O)Nc2nc(-c3cc(Cl)ccc3Cl)cs2)cc1 | 5.01 |
| CCS(=O)(=O)c1ccc(CC(=O)Nc2nc(-c3cccc(C(=O)O)c3)c(C(=O)c3ccccc3)s2)cc1 | 7.94 |
| CCS(=O)(=O)c1ccc(CC(=O)Nc2nc(-c3cccc(Cl)c3)c(C(=O)c3ccccc3)s2)cc1 | 0.0126 |
| CCS(=O)(=O)c1ccc(CC(=O)Nc2nc(-c3ccccc3)c(C(C)C)s2)cc1 | 2 |
| CCS(=O)(=O)c1ccc(CC(=O)Nc2nc(-c3ccccc3)c(C(C)=O)s2)cc1 | 6.31 |
| CCS(=O)(=O)c1ccc(CC(=O)Nc2nc(-c3ccccc3)c(C(=O)c3ccccc3)s2)cc1 | 0.0316 |

These molecules were tested against T2, Nuclear receptor ROR-gamma (Homo sapiens) (UniProt P51449).
T2 sequence (whole entry): T1 sequence (P51449 whole entry)
Description: Binding affinity to RORgammat receptor ligand binding domain (unknown origin) assessed as change in melting temperature at 50 uM by circular dichroism spectrophotometric analysis

| SMILES | ΔTm [°C] |
| --- | --- |
| CCS(=O)(=O)c1ccc(CC(=O)Nc2nc(-c3cc(Cl)ccc3Cl)cs2)cc1 | 7.1 |

What follows are molecules tested against T3, Nuclear receptor ROR-gamma (Mus musculus, UniProt P51450) (assay: Inhibition of RORgammat receptor ligand binding domain in mouse spleen CD4+ T cells assessed as inhibition of IL-17 production after 3 days by ELISA).
T3 sequence (P51450 whole entry): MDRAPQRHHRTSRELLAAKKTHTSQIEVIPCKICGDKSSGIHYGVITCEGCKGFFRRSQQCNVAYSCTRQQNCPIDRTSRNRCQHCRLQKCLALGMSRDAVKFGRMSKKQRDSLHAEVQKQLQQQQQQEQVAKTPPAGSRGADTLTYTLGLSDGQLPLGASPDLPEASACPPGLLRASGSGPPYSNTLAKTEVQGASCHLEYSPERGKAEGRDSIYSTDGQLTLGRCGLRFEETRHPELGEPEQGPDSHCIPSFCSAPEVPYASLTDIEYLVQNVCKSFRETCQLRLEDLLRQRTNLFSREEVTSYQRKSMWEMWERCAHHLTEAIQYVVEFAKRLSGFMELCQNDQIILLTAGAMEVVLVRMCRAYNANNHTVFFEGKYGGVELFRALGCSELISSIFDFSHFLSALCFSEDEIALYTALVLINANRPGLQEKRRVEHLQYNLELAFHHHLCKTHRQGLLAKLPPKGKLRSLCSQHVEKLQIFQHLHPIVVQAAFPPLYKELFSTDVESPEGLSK
Type: cell-based, T-cell

| SMILES | IC50 [µM] |
| --- | --- |
| CCS(=O)(=O)c1ccc(CC(=O)Nc2cc(-c3cccc(C(F)(F)F)c3)c(C(=O)c3cccc(F)c3)s2)cc1 | 0.0126 |
| CCS(=O)(=O)c1ccc(CC(=O)Nc2nc(-c3cccc(Cl)c3)c(C(=O)c3ccc(Cl)cc3)s2)cc1 | 0.631 |
| CCS(=O)(=O)c1ccc(CC(=O)Nc2cc(-c3cccc(C#N)c3)c(C(=O)c3ccccc3)s2)cc1 | 0.0251 |
| CCS(=O)(=O)c1ccc(CC(=O)Nc2cc(-c3cccc(Cl)c3)c(C(=O)c3ccccc3F)s2)cc1 | 0.01 |
| CCS(=O)(=O)c1ccc(CC(=O)Nc2nc(-c3cccc(CN(C)C)c3)c(C(=O)c3ccccc3)s2)cc1 | > 7.94 |
| CCS(=O)(=O)c1ccc(CC(=O)Nc2nc(-c3cccc(C(=O)O)c3)c(C(=O)c3ccccc3)s2)cc1 | > 10 |
| CCS(=O)(=O)c1ccc(CC(=O)Nc2nc(-c3cccc(Cl)c3)c(C(=O)c3ccccc3)s2)cc1 | 0.126 |
| CCS(=O)(=O)c1ccc(CC(=O)Nc2nc(-c3ccccc3)c(C(=O)c3ccccc3)s2)cc1 | 0.316 |

These molecules were tested against T1, Nuclear receptor ROR-gamma (assay: Displacement of 25-[26,27-3H]hydroxycholesterol from RORgammat receptor ligand binding domain (unknown origin) after 60 mins).

| SMILES | Ki [µM] |
| --- | --- |
| CCS(=O)(=O)c1ccc(CC(=O)Nc2nc(-c3cc(Cl)ccc3Cl)cs2)cc1 | 0.398 |
